What was measured:
BRAPL = assay: greenhouse post-emergence herbicidal test; format: in vivo, Brachiaria plantaginea; conditions: scale from 0 to 100
From the text: (§1) The culture containers used were plastic flowerpots containing loamy sand with approximately 3.0% of humus as the substrate. The seeds of the test plants were sown separately for each species.
(§2) For the post-emergence treatment, the test plants were first grown to a height of 3 to 15 cm, depending on the plant habit, and only then treated with the active ingredients which had been suspended or emulsified in water. For this purpose, the test plants were either sown directly and grown in the same containers, or they were first grown separately as seedlings and transplanted into the test containers a few days prior to treatment.
(§3) Depending on the species, the plants were kept at 10-25° C. or 20-35° C. The test period extended over 2 to 4 weeks. During this time, the plants were tended, and their response to the individual treatments was evaluated.
(§4) Evaluation was carried out using a scale from 0 to 100. 100 means no emergence of the plants, or complete destruction of at least the aerial moieties, and 0 means no damage, or normal course of growth. A good herbicidal activity is given at values of at least 70 and a very good herbicidal activity is given at values of at least 85.

COMBE = assay: greenhouse post-emergence herbicidal test; format: in vivo, Commenline benghalensis; conditions: scale from 0 to 100
From the text: as §1, §2, §3, §4

SETVI = assay: greenhouse post-emergence herbicidal test; format: in vivo, Setaria viridis; conditions: scale from 0 to 100
From the text: as §1, §2, §3, §4

ERICA = assay: greenhouse post-emergence herbicidal test; format: in vivo, Erigeron canadensis; conditions: scale from 0 to 100
From the text: as §1, §2, §3, §4

BRADE = assay: greenhouse post-emergence herbicidal test; format: in vivo, Brachiaria deflexa; conditions: scale from 0 to 100
From the text: as §1, §2, §3, §4

ELEIN = assay: greenhouse post-emergence herbicidal test; format: in vivo, Eleusine indica; conditions: scale from 0 to 100
From the text: as §1, §2, §3, §4

DIGSA = assay: greenhouse post-emergence herbicidal test; format: in vivo, Digitaria sanguinales; conditions: scale from 0 to 100
From the text: as §1, §2, §3, §4

Abutilon theophrasti = assay: greenhouse post-emergence herbicidal test; format: in vivo; conditions: post-emergence method, application rate 6.25 g/ha
From the text: as §1, §2, §3, §4

Amaranthus retroflexus [1] = assay: greenhouse post-emergence herbicidal test; format: in vivo; conditions: post-emergence method, application rate 6.25 g/ha
From the text: as §1, §2, §3, §4

Chenopodium album = assay: greenhouse post-emergence herbicidal test; format: in vivo; conditions: post-emergence method, application rate 6.25 g/ha
From the text: as §1, §2, §3, §4

Pharbitis purpurea [2] = assay: greenhouse post-emergence herbicidal test; format: in vivo; conditions: post-emergence method, application rate 6.25 g/ha
From the text: as §1, §2, §3, §4

Amaranthus retroflexus [3] = assay: greenhouse pre-emergence herbicidal test; format: in vivo; conditions: pre-emergence method, application rate 6.25 g/ha
From the text: as §1
(§5) For the pre-emergence treatment, the active ingredients, which had been suspended or emulsified in water, were applied directly after sowing by means of finely distributing nozzles. The containers were irrigated gently to promote germination and growth and subsequently covered with transparent plastic hoods until the plants had rooted. This cover caused uniform germination of the test plants, unless this has been impaired by the active ingredients.
as §3, §4

Erigeron Canadensis = assay: greenhouse pre-emergence herbicidal test; format: in vivo; conditions: pre-emergence method, application rate 6.25 g/ha
From the text: as §1, §5, §3, §4

Pharbitis purpurea [4] = assay: greenhouse pre-emergence herbicidal test; format: in vivo; conditions: application rate 0.025 kg/ha, eight days after treatment (greenhouse)
From the text: as §1, §5, §3, §4

Setaria faberi = assay: greenhouse pre-emergence herbicidal test; format: in vivo; conditions: application rate 0.025 kg/ha, eight days after treatment (greenhouse)
From the text: as §1, §5, §3, §4

Solanum nigrum = assay: greenhouse pre-emergence herbicidal test; format: in vivo; conditions: pre-emergence method, application rate 6.25 g/ha
From the text: as §1, §5, §3, §4

In the case of `CCNc1nc(Cl)nc(NC(C)C)n1` [B.54, atrazine, reference compound], the “herbicidal activity against BRAPL found” value (BRAPL; B.54 250 g/ha a.s.) is reported as 20 and the “herbicidal activity against COMBE found” value (COMBE; B.54 250 g/ha a.s.) is reported as 70.
In the case of `CC(C)N(C)S(=O)(=O)NC(=O)c1cc(-n2c(=O)cc(C(F)(F)F)n(C)c2=O)c(F)cc1Cl` [B.76, saflufenacil], the “herbicidal activity against SETVI found” value (SETVI; B.76 1.56 g/ha a.s.) is reported as 0 and the “herbicidal activity against ERICA found” value (ERICA; B.76 1.56 g/ha a.s.) is reported as 45.
With `Cc1c(C(=O)c2cnn(C)c2O)ccc(S(C)(=O)=O)c1C1=NOCC1` [B.93, topramezone, reference compound] the “herbicidal activity against BRADE found” value (BRADE; B.93 3.1 g/ha a.s.) was 65.
`CC(C)N.O=C(O)CNCP(=O)(O)O` [B.98, glyphosate-isopropylammonium] was tested, and the “herbicidal activity against ELEIN found” value (ELEIN; B.98 135 g/ha a.s.) was 60, the “herbicidal activity against SETVI found” value (SETVI; B.98 68 g/ha a.s.) was 90 and the “herbicidal activity against ERICA found” value (ERICA; B.98 68 g/ha a.s.) was 80.
`Cn1nc(C(F)(F)F)c(CS(=O)(=O)C2=NOC(C)(C)C2)c1OC(F)F` [B.118, pyroxasulfone, reference compound] was tested, and the “herbicidal activity against DIGSA found” value (DIGSA; B.118 12.5 g/ha a.s.) was 35.
For `C#CCN1C(=O)C(F)(F)Oc2cc(F)c(-n3c(=O)cc(C(F)(F)F)n(C)c3=O)cc21` [Ia48, 1-Methyl-6-trifluoromethyl-3-(2,2,7-trifluoro-3-oxo-4-prop-2-ynyl-3,4-dihydro-2H-benzo[1,4]oxazin-6-yl)-1H-pyrimidine-2,4-dione], the “herbicidal activity against Abutilon theophrasti” value (Abutilon theophrasti) was “very good herbicidal activity (a very good herbicidal activity is given at values of at least 85)”, the “herbicidal activity against Amaranthus retroflexus” value (Amaranthus retroflexus [1]) was “very good herbicidal activity (a very good herbicidal activity is given at values of at least 85)” and the “herbicidal activity against Chenopodium album” value (Chenopodium album) was “very good herbicidal activity (a very good herbicidal activity is given at values of at least 85)”. For the same compound, the “herbicidal activity against Pharbitis purpurea” value (Pharbitis purpurea [2]) was “very good herbicidal activity (a very good herbicidal activity is given at values of at least 85)”, the “herbicidal activity against BRAPL found” value (BRAPL; Ia48 6.25 g/ha a.s.) was 60 and the “herbicidal activity against COMBE found” value (COMBE; Ia48 3.12 g/ha a.s.) was 60. The “herbicidal activity against BRADE found” value (BRADE; Ia48 6.25 g/ha a.s.) was 85, the “herbicidal activity against ELEIN found” value (ELEIN; Ia48 3.12 g/ha a.s.) was 20 and the “herbicidal activity against DIGSA found” value (DIGSA; Ia48 6.25 g/ha a.s.) was 65. The “herbicidal activity against SETVI found” value (SETVI; Ia48 12.5 g/ha a.s.) was 95, the “herbicidal activity against ERICA found” value (ERICA; Ia48 12.5 g/ha a.s.) was 90 and the “herbicidal activity against Amaranthus retroflexus” value (Amaranthus retroflexus [3]) was “very good herbicidal activity (a very good herbicidal activity is given at values of at least 85)”. For the same compound, the “herbicidal activity against Erigeron Canadensis” value (Erigeron Canadensis) was “very good herbicidal activity (a very good herbicidal activity is given at values of at least 85)”, the “damages, unwanted plants Pharbitis purpurea” value (Pharbitis purpurea [4]) was 90 and the “damages, unwanted plants Setaria faberi” value (Setaria faberi) was 98. For the same compound, the “herbicidal activity against Solanum nigrum” value (Solanum nigrum) was “very good herbicidal activity (a very good herbicidal activity is given at values of at least 85)”.
With `C#CCN1C(=O)COc2cc(F)c(-n3c(=O)cc(C(F)(F)F)n(C)c3=O)cc21` [example 39, reference compound] the “damages, unwanted plants Pharbitis purpurea” value (Pharbitis purpurea [4]) was 80 and the “damages, unwanted plants Setaria faberi” value (Setaria faberi) was 90.
